Laboratory results: patent US8461139B2 (Taro Pharmaceuticals North America, Inc., priority 2005, dated 2013)

Test: pH screen stability of prednisolone acetate oral suspension (HPLC)
Assay type: physicochemical
Details: pH range of 5.0 to 6.2
Experimental: NaOH was added to the portions to give various pH values (Batch A-E) and packaged in 4 ounce amber PETG bottles. The samples were left at the environmentally stressed conditions of 40° centigrade or 50° centigrade for one month. HPLC methods were used to measure the percent of prednisolone acetate retained in the bottle.

With `CC(=O)OCC(=O)[C@@]1(O)CC[C@H]2[C@@H]3CCC4=CC(=O)C=C[C@]4(C)[C@H]3[C@@H](O)C[C@@]21C` [Prednisolone acetate, prednisolone acetate] the “Stability as a function of pH” value was “more stable at the lower pH values”.
